Here are results for 5 compounds from patent US8404747B2, “Compositions and methods for modulating interaction between polypeptides” (The General Hospital Corporation, priority 2004, dated 2013).

SMILES strings stand for the structures. Entries after “also recorded” stand apart in the source; their conditions may differ.

The test system of one data set is HDAc. In words: HDAc activity. In kind it is biochemical.
The subject of data set [1] is striatum of 11Q/111Q cells and PC12 cells. In words: transcriptional activation or repression in striatum 111Q cells and PC12 cells. In kind it is cell-based. From the text:
Biochemical activity associated with C9-2 is not well understood. […] Future studies include testing the compound for anti-apoptotic activity, and transcriptional profiling using a striatum cell line derived from a double knock-out mutant htt mouse. The C9-2 analogs C9-2B (A30 in Table 1) and C9-2A (control) (A29 in Table 1) are being tested for an effect on photoreceptor neurodegeneration in the Drosophila HD model.

For data set [2], the system named is polyQ-containing polypeptides. In words: aggregation of polyQ-containing polypeptides, assay not specified.
For a further data set, the system named is photoreceptor neurons. Put plainly: Drosophila HD photoreceptor neurodegeneration model. In kind it is in vivo. The source says:
A variety of animal models of Huntington disease have been developed. Examination of the degeneration of photoreceptor neurons facilitated by extended polyQ expression is one such model (Jackson et al., Neuron 21:633-642, 1998).
We used the photoreceptor model in Drosophila to test a variety of different compounds, including naphthylamine derivatives, for an effect on neurodegeneration. […] C9-2 is 2-(3-methoxypropyl)-1H-benzo[de]isoquinoline-1,3(2H)-dione.

The test system of data set [3] is SP1 trancription factor binding motif (6XSP1) promoter. Put plainly: 6XSP1 luciferase transcription-based assay in 111Q/111Q striatum double knock-in cells. To be noted: 6XSP1 luciferase reporter; CG4 among CG series, less potent than C9-4. In kind it is cell-based, mouse. On the procedure:
FIGS. 1A-1C. FIG. 1A is a bar graph showing luciferase expression in Sp1-luc/111Q striatum double knock-in cells following treatment with different compounds, as indicated. Fluorescence was measured 24 hours after addition of compound. FIG. 1B is a bar graph as described in FIG. 1A. Fluorescence was measured 48 hours after addition of compound. FIG. 1C is a bar graph as described in FIG. 1A. Fluorescence was measured 72 hours after addition of compound.
We conducted structure activity relationship (SAR) studies to optimize transcription activation. We developed a novel transcription-based assay for this purpose. A luciferase reporter gene was stably integrated into 111Q/111Q striatum double knock-in cells and constitutively expressed under control of a promoter containing six copies of the SP1 trancription factor binding motif (6XSP1). In this system, C9 was determined to have an EC200 of 7.5 μM.
In general terms: A reporter such as luciferase makes a cellular process visible.

A further data set concerns DNA. In words: DNA binding activity.
A further data set relates to proteasomal dysfunction. Put plainly: proteasomal dysfunction in PC12 cells expressing extended polyQ. The data set is classed as cell-based.
The test system of another data set is htt103Q-EGFP. In words: PC12 htt103Q-EGFP fluorescence assay. In kind it is cell-based. The note with it: PC12 cells. The source says: A PC12 cell line was engineered to express extended polyQ under the control of an ecdysone-inducible promoter. In the assay cell line, an N-terminal fragment of htt containing an extended polyQ tract was stably expressed as a fusion with EGFP (htt103Q-EGFP), from the pIND vector. Expression of extended polyQ in these cells was controlled by addition of an ecdysone analog, in this case muristerone A. In this assay, EGFP fluorescence directly correlated with htt103Q-EGFP expression levels. This system was designed to assess the effects of specific compounds on overall levels of extended polyglutamines in cells, using a simple fluorescent-based read-out.

The subject of a further data set is p53 protein. In words: levels of endogenous p53 protein in PC12 cells. In kind it is cell-based, rat. On the procedure: The protein levels of Htt fragments containing 103Q in PC12 cells were not affected by incubation with compounds at the concentrations tested. Furthermore, proteolytic capacity of cells treated with compound C2 appeared to be normal, since levels of a highly unstable endogenous p53 protein in PC12 cells were not changed.

Data set [4] relates to aggregation of 103Q in PC12 cells. In words: polyQ (103Q) aggregation in ecdyson-inducible PC12 cells. In kind it is cell-based, rat. On the procedure:
(§1) To study the inhibitors we identified using the yeast screen in mammalian cells, we employed ecdyson-inducible rat phaeochromocytoma (PC12) cells. Compounds were tested in two clones, 14A2/5 and 14A2/6, with highest aggregation rate. We incubated undifferentiated PC12 cells with muristerone A to induce 103Q expression, and we exposed the cells to compounds at concentrations ranging from 1 to 10 μM. […] All compounds were non-toxic except C2, which was toxic at concentrations higher than 5 μM.
We tested these analogs at concentrations ranging from 0.025 μM to 5.0 μM for their effects on polyQ aggregation in PC12 cells. Among 24 analogs of C1; 28 analogs of C2; 24 analogs of C3, and 53 analogs of C4, we identified several potent inhibitors of polyQ aggregation. From our C2 focus library, we isolated compound C2-8 (B2 in Table 2), which inhibits polyQ aggregation with an IC50 value 50 nM. We also identified C2-10 (B6 in Table 2) and C2-11 (M16 (formula V(n)) in Table 5), and B7, B8 and B9 in Table 2. From our C3 focus library, we isolated compound C3-5 (M22 (formula V(t)) in Table 5) (having an IC50 value of 100 nM) and compound C3-6 (M17 (formula V(o)) in Table 5) (having an IC50 value of 5 μM). From our C4 library, we isolated compound C4-7 (A31 in Table 1), which has an IC50 value 100 nM. We also identified C4-34 (A3 in Table 1).

For the next data set, the system named is Cos1 cells. Put plainly: toxicity for Cos1 cells. The data set is classed as cell-based. On the procedure:
The inhibitory activity we observed with C1-C4 in the PC12 cell model described above was confirmed in Cos1 cells transiently transfected with a CMV promoter-based DNA construct that encodes an Htt exon I fragment of Huntington's disease protein (Htt)) having 51 consecutive glutamine residues (HD Q51). When expressed in Cos1 cells, HD 51Q polypeptides readily form aggregates. Transfected Cos1 cells were incubated with C1-C4 compounds in culture medium and lysed. The lysates were then heat-denatured in SDS and passed through a cellulose acetate membrane, which captures aggregated, but not soluble polypeptides. Polyglutamine aggregates trapped on membranes were detected by immunostaining with antibody specific to extended polyQ. Pre-incubation of cells with compounds C1, C3, and C4 decreased the amount of retained polyQ, indicating inhibitory effects on polyQ aggregation. The IC50 for compound C1 was 10 μM and the IC50 for compounds C3 and C4 was 5 μM. As C2 was toxic for Cos1 cells, its effect on aggregation was not determined.

Data set [5] concerns the target T1, Recombinant HD Q51 polypeptide (Homo sapiens, UniProt P42858, INS38QQQQQQQQQQQQQQQQQQQQQQQQQQQQQQ).
T1 construct: made in house
In words: cell-free trap assay of purified polyQ. The data set is classed as biochemical. To be noted: cell-free; up to 100 mM. On the procedure:
To determine whether C2 could directly interfere with polyQ aggregation, we reproduced this process in vitro and assayed the inhibitory effects of the compounds in a cell-free trap assay. Recombinant HD Q51 polypeptide, purified from bacteria, was incubated in the presence or in the absence of C2 for a time sufficient to allow aggregation. Then, upon heat-denaturation in SDS buffer, samples were filtered through a cellulose acetate membrane. Harsh denaturation conditions separated unaggregated soluble peptides, which passed through the membrane, and insoluble aggregates, which were retained on the membrane. The polyQ aggregates trapped on the membrane were subsequently immunostained and quantified.
Congo Red, which is structurally unrelated to C2-8, was used as a control.

In a further data set the test system is PC12 cells. Put plainly: toxicity in PC12 cells. The data set is classed as cell-based, rat. On the procedure:
as §1
In the C1 library, no inhibitors of polyQ aggregation with high potency were found.

Data set [6] relates to mutant Huntingtin transgene (htt). Put plainly: transgene (mutant htt, extended polyQ) expression in inducible PC12 cells. The data set is classed as cell-based, rat. To be noted: 2.5 μM. From the text: The compound C9 (A33 in Table 1) has structural similarity to the histone deacetylase (HDAc) inhibitor, scriptaid (6-(1,3-Dioxo-1H,3H-benzo[de]isoquinolin-2-yl)-N-hydroxyhexanamide) (Su et al., Cancer Res. 60:3137, 2000; A5 in Table 1). We observed the most dramatic effect on expression level by C9 and scriptaid in the PC12 cell line 14A2/6 expressing the extended polyQ mutant htt(104Q). The effect of C9 on the down-regulation of polyQ expression, was similar to cystamine, a drug that has shown efficacy in a mouse model for Huntington's Disease (HD). […] 14A2/6 cells were at least 5-fold more responsive to chemical treatment than other cell lines tested.
Transcriptional dysregulation is a hallmark of HD. […] Expression of the polypeptide was under control of an inducible ecdysone receptor (EcR)-based promoter.

In another data set the test system is flies. In words: toxicity to flies. On the set-up: species or system Drosophila. To be noted: in vivo. From the text:
Scriptaid was toxic to flies.

Usually IC50 stands for the concentration at which inhibition is half-maximal.

T1 sequence (P42858 with tags, fused parts or gaps with the stated changes): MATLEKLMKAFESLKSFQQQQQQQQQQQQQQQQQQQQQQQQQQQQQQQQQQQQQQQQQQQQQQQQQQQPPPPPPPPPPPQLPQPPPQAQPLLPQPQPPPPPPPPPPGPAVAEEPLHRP

Take `COCCCN1C(=O)c2cccc3cccc(c23)C1=O` [Compound C9-2, 2-(3-Methoxy-propyl)-benzo[de]isoquinoline-1,3-dione]: the “direct inhibition of HDAc activity” value in the data set on HDAc is on record as “does not appear to inhibit”. Moreover, the “transcriptional activation or repression” value in data set [1] is given as “no transcriptional activation or repression”. Also, the effect on aggregation result in data set [2] is on record as “does not appear to suppress aggregation; also recorded: facilitate protein-protein aggregation”. Besides, the “neurodegeneration of photoreceptor neurons” value in the data set on photoreceptor neurons is “dramatic neuroprotection”. Further, the transcription activation result in [3] is recorded as “did not effectively activate transcription”. Also, the DNA binding activity entry in the data set on DNA is listed as “nor has DNA binding activity been detected”.
In the case of `CCOC(=O)c1c(NC(=O)Cc2ccc(OC)cc2)sc(C(=O)Nc2ccccc2OC)c1C` [Compound D1, 2-[2-(4-Methoxy-phenyl)-acetylamino]-5-(2-methoxy-phenylcarbamoyl)-4-methyl-thiophene-3-carboxylic acid ethyl ester], in the data set with proteasomal dysfunction, the proteasomal dysfunction phenotype entry is listed as “relieved this phenotype”. The “effect on protein aggregation” value in the data set on htt103Q-EGFP is recorded as “facilitators of protein aggregation”.
Consider `CCOC(=O)c1c(NC(=O)c2ccccc2C)sc(C(=O)Nc2ccccc2OC)c1C` [Compound D2, 5-(2-Methoxy-phenylcarbamoyl)-4-methyl-2-(2-methyl-benzoylamino)-thiophene-3-carboxylic acid ethyl ester], for which, in the data set with proteasomal dysfunction, the proteasomal dysfunction phenotype result is recorded as “relieved this phenotype”. In addition, the “effect on protein aggregation” value with htt103Q-EGFP is recorded as “facilitators of protein aggregation”.
On to `O=C(Nc1ccc(Br)cc1)c1ccc(Br)c(S(=O)(=O)NC2CCCCC2)c1` [Compound C2, 4-Bromo-N-(4-bromo-phenyl)-3-cyclohexylsulfamoyl-benzamide], for which the “levels of endogenous p53 protein” value in the data set with p53 protein is reported as “not changed”. Also, the IC50 in [4] (Rattus norvegicus, PC-12, PC12 clones 14A2/5 and 14A2/6, muristerone A induced, 1 to 10 μM, read-out: IC50, aggregation of 103Q) was 5 µM. Besides, the “toxicity for Cos1 cells” value in the data set with Cos1 cells is “toxic”. For the same compound, the “aggregation of pure polyglutamines in vitro” value in [5] is on record as “failed to block aggregation”. The toxic concentrations entry in the data set with PC12 cells (PC12 cells) is recorded as “higher than 5 μM”.
`O=C(CCCCCN1C(=O)c2cccc3cccc(c23)C1=O)NO` [Scriptaid, 6-(1,3-Dioxo-1H,3H-benzo[de]isoquinolin-2-yl)-hexanoic acid hydroxyamide, reference compound] showed a cells with aggregation in data set [4] (14A2/6 cells, 2.5 μM) of 100%. Also, the expression of transgene entry in [6] (14A2/6 cells) was “dramatic overexpression”; in data set [6] (other cell lines), “modestly stimulated”. Also, the toxicity to flies entry with flies is recorded as “toxic”. Further, in the data set on PC12 cells (14A2/6 cells, 2.5 μM), the cell viability result was “cell death”.
